Reference: patent publication US10723741B1, “DNA polymerase IIIC inhibitors and use thereof” (Acurx Pharmaceuticals, LLC, priority 2018, dated 2020)
In brackets after ≈: the same amount, converted by molar mass. Counter-ions that a name gives are not always drawn. Like-named read-outs stand apart in the source and are kept apart here.

Columns and labels:
Format in all cases: cell-based
[1] = system: Staphylococcus aureus NRS384 (MRSA); experiment: Broth microdilution MIC, S. aureus NRS384 (MRSA); details: Staphylococcus aureus, read-out: MIC NRS 384 (MRSA)
Summary of the method: (§1)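 Two-fold dilutions from 64 to 0.0625 μg/ml final, 1% DMSO, were inoculated at ~5.0×10^5 cfu/ml in the strain's test medium and kept 20 h at 37 °C in ambient atmosphere. Colonies were grown on MHA, with S. pneumoniae on blood agar under 5% CO2.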

[2] = system: Staphylococcus aureus ATCC 29213 (MSSA); experiment: Broth microdilution MIC, S. aureus ATCC 29213 (MSSA); details: read-out: MIC S. aureus ATCC 29213 (MSSA)
Summary of the method: as §1

[3] = system: Enterococcus faecalis ATCC 29212; experiment: Broth microdilution MIC, E. faecalis ATCC 29212; details: read-out: MIC E. faecalis ATCC 29212
Summary of the method: as §1

[4] = system: Enterococcus faecium ATCC 700221 (VRE); experiment: Broth microdilution MIC, E. faecium ATCC 700221 (VRE); details: Enterococcus faecium, read-out: MIC E. faecium ATCC 700221 (VRE)
Summary of the method: as §1

[5] = system: Streptococcus pneumoniae ATCC 49619; experiment: Broth microdilution MIC, S. pneumoniae ATCC 49619; details: read-out: MIC S. pneumoniae ATCC 49619
Summary of the method: as §1

[6] = system: Bacillus subtilis ATCC 6633; experiment: Broth microdilution MIC, B. subtilis ATCC 6633; details: read-out: MIC B. subtilis ATCC 6633
Summary of the method: as §1

[7] = system: Escherichia coli ATCC 25922; experiment: Broth microdilution MIC, E. coli ATCC 25922 (MHIIB w & w/o 4 mM EDTA); details: for MIC: Escherichia coli, read-out: MIC E. coli ATCC 25922; for MIC E. coli ATCC 25922 + 4 mM EDTA: with 4 mM EDTA
Summary of the method: as §1

[8] = broth microdilution, 37° C., 20 hours
[9] = ATCC29212, broth microdilution, 37° C., 20 hours
[10] = ATCC49619, broth microdilution, 37° C., 20 hours
[11] = ATCC6633, broth microdilution, 37° C., 20 hours
[12] = ATCC25922, without EDTA, broth microdilution, 37° C., 20 hours

Row | Compound | MIC [1, 8] [µg/mL] | MIC [2, 8] [µg/mL] | MIC [3, 9] [µg/mL] | MIC [4, 8] [µg/mL] | MIC [5, 10] [µg/mL] | MIC [6, 11] [µg/mL] | MIC [7, 12] [µg/mL] | MIC E. coli ATCC 25922 + 4 mM EDTA [7, 8] [µg/mL] | MIC ([1]; 20 h) [µg/mL] | MIC ([2]; 20 h) [µg/mL] | MIC ([3]; ATCC29212, 20 h) [µg/mL] | MIC ([4]; 20 h) [µg/mL] | MIC ([5]; ATCC49619, 20 h) [µg/mL] | MIC ([6]; ATCC6633, 20 h) [µg/mL] | MIC ([7]; ATCC25922, 20 h) [µg/mL]
1 | Cc1nnc(CCn2ncc3nc(NCc4ccc(Cl)c(Cl)c4)[nH]c(=O)c32)o1 [Compound 233, 5-((3,4-dichlorobenzyl)amino)-1-(2-(5-methyl-1,3,4-oxadiazol-2-yl)ethyl)-1H-pyrazolo[4,3-d]pyrimidin-7(6H)-one] | 4 (≈ 9.52 µM) | 4 (≈ 9.52 µM) | 4 (≈ 9.52 µM) | 2 (≈ 4.76 µM) | 2 (≈ 4.76 µM) | 2 (≈ 4.76 µM) | > 64 | 64 | – | – | – | – | – | – | –
2 | Cl.O=c1[nH]c(NCc2ccc(Cl)c(Cl)c2)nc2cnn(CCc3nnc(CO)o3)c12 [Compound 234, 5-((3,4-dichlorobenzyl)amino)-1-(2-(5-(hydroxymethyl)-1,3,4-oxadiazol-2-yl)ethyl)-1H-pyrazolo[4,3-d]pyrimidin-7(6H)-one hydrochloride] | 64 | 64 | 32 | 8 | 16 | 16 | > 64 | >64 | – | – | – | – | – | – | –
3 | COCc1nnc(CCn2ncc3nc(NCc4ccc(Cl)c(Cl)c4)[nH]c(=O)c32)o1.Cl [Compound 235, 5-((3,4-dichlorobenzyl)amino)-1-(2-(5-(methoxymethyl)-1,3,4-oxadiazol-2-yl)ethyl)-1H-pyrazolo[4,3-d]pyrimidin-7(6H)-one hydrochloride] | 16 | 8 | 8 | 4 | 8 | 4 | > 64 | >64 | – | – | – | – | – | – | –
4 | Cl.O=c1[nH]c(NCc2ccc(Cl)c(Cl)c2)nc2cnn(CC3C(O)C4CCN3CC4)c12 (stereo not shown) [Compound 236, 5-((3,4-Dichlorobenzyl)amino)-1-((3-hydroxyquinuclidin-2-yl)methyl)-1H-pyrazolo[4,3-d]pyrimidin-7(6H)-one] | > 64 | > 64 | 64 | 64 | 8 | 32 | > 64 | 64 | – | – | – | – | – | – | –
5 | NS(=O)(=O)CCn1ncc2nc(NCc3ccc(Cl)c(Cl)c3)[nH]c(=O)c21 [Compound 237, 2-(5-((3,4-dichlorobenzyl)amino)-7-oxo-6,7-dihydro-1H-pyrazolo[4,3-d]pyrimidin-1-yl)ethanesulfonamide] | 32 (≈ 76.7 µM) | 32 (≈ 76.7 µM) | 32 (≈ 76.7 µM) | 16 (≈ 38.3 µM) | 4 (≈ 9.59 µM) | 16 (≈ 38.3 µM) | > 64 | 64 | – | – | – | – | – | – | –
6 | CC(C)(C)NS(=O)(=O)CCn1ncc2nc(NCc3ccc(Cl)c(Cl)c3)[nH]c(=O)c21 [Compound 238, N-(tert-butyl)-2-(5-((3,4-dichlorobenzyl)amino)-7-oxo-6,7-dihydro-1H-pyrazolo[4,3-d]pyrimidin-1-yl)ethanesulfonamide] | 4 (≈ 8.45 µM) | 8 (≈ 16.9 µM) | 8 (≈ 16.9 µM) | 2 (≈ 4.22 µM) | 8 (≈ 16.9 µM) | 4 (≈ 8.45 µM) | > 64 | >64 | – | – | – | – | – | – | –
7 | C[C@@H](O)Cn1ncc2nc(NCc3ccc(Cl)c(Cl)c3)[nH]c(=O)c21 [Compound 239, (R)-5-((3,4-dichlorobenzyl)amino)-1-(2-hydroxypropyl)-1H-pyrazolo[4,3-d]pyrimidin-7(6H)-one] | 4 (≈ 10.9 µM) | 4 (≈ 10.9 µM) | 8 (≈ 21.7 µM) | 2 (≈ 5.43 µM) | 8 (≈ 21.7 µM) | 2 (≈ 5.43 µM) | > 64 | >64 | – | – | – | – | – | – | –
8 | C[C@H](O)Cn1ncc2nc(NCc3ccc(Cl)c(Cl)c3)[nH]c(=O)c21 [Compound 240, (S)-5-((3,4-dichlorobenzyl)amino)-1-(2-hydroxypropyl)-1H-pyrazolo[4,3-d]pyrimidin-7(6H)-one] | 4 (≈ 10.9 µM) | 4 (≈ 10.9 µM) | 8 (≈ 21.7 µM) | 4 (≈ 10.9 µM) | 4 (≈ 10.9 µM) | 2 (≈ 5.43 µM) | > 64 | >64 | – | – | – | – | – | – | –
9 | CN1CCC(O)(Cn2ncc3nc(NCc4ccc(Cl)c(Cl)c4)[nH]c(=O)c32)CC1.Cl [Compound 241, 5-((3,4-dichlorobenzyl)amino)-1-((4-hydroxy-1-methylpiperidin-4-yl)methyl)-1H-pyrazolo[4,3-d]pyrimidin-7(6H)-one hydrochloride] | 64 | 32 | 32 | 64 | 8 | 4 | > 64 | >64 | – | – | – | – | – | – | –
10 | CN1CCC(n2ncc3nc(NCc4ccc(Cl)c(Cl)c4)[nH]c(=O)c32)C1 (stereo not shown) [Compound 243, 5-((3,4-Dichlorobenzyl)amino)-1-(1-methylpyrrolidin-3-yl)-1H-pyrazolo[4,3-d]pyrimidin-7(6H)-one TFA salt] | – | – | – | – | – | – | – | 32 | 8 | 8 | 8 | 4 | 4 | 4 | > 64
11 | Cl.Cl.O=c1[nH]c(NCc2ccc(Cl)c(Cl)c2)nc2cnn(C3CCN(Cc4ccccn4)CC3)c12 [Compound 244, 5-((3,4-Dichlorobenzyl)amino)-1-(1-(pyridin-2-ylmethyl)piperidin-4-yl)-1H-pyrazolo[4,3-d]pyrimidin-7(6H)-one dihydrochloride] | 2 | 2 | 4 | 2 | 4 | 1 | > 64 | 16 | – | – | – | – | – | – | –
12 | Cl.Cl.O=c1[nH]c(NCc2ccc(Cl)c(Cl)c2)nc2cnn(C3CCN(Cc4cccnc4)CC3)c12 [Compound 245, 5-((3,4-Dichlorobenzyl)amino)-1-(1-(pyridin-3-ylmethyl)piperidin-4-yl)-1H-pyrazolo[4,3-d]pyrimidin-7(6H)-one dihydrochloride] | 2 | 2 | 4 | 1 | 2 | 1 | > 64 | 32 | – | – | – | – | – | – | –
13 | Cl.Cl.O=c1[nH]c(NCc2ccc(Cl)c(Cl)c2)nc2cnn(C3CCN(Cc4ccncc4)CC3)c12 [Compound 246, 5-((3,4-Dichlorobenzyl)amino)-1-(1-(pyridin-4-ylmethyl)piperidin-4-yl)-1H-pyrazolo[4,3-d]pyrimidin-7(6H)-one dihydrochloride] | 2 | 2 | 4 | 2 | 4 | 1 | > 64 | >64 | – | – | – | – | – | – | –
14 | Cl.Cl.O=c1[nH]c(NCc2ccc(Cl)c(Cl)c2)nc2cnn(C3CCN(CC4CCNCC4)CC3)c12 [Compound 247, 5-((3,4-dichlorobenzyl)amino)-1-(1-(piperidin-4-ylmethyl)piperidin-4-yl)-1H-pyrazolo[4,3-d]pyrimidin-7(6H)-one dihydrochloride] | 64 | 32 | 32 | 32 | 8 | 8 | > 64 | 64 | – | – | – | – | – | – | –
15 | CC(C)(C)OC(=O)N1CCC(CN2CCC(n3ncc4nc(NCc5ccc(Cl)c(Cl)c5)[nH]c(=O)c43)CC2)CC1 [Compound 248, tert-Butyl 4-((4-(5-((3,4-dichlorobenzyl)amino)-7-oxo-6,7-dihydro-1H-pyrazolo[4,3-d]pyrimidin-1-yl)piperidin-1-yl)methyl)piperidine-1-carboxylate2,2,2-trifluoroacetate] | 16 (≈ 27.1 µM) | 16 (≈ 27.1 µM) | 4 (≈ 6.77 µM) | 4 (≈ 6.77 µM) | 8 (≈ 13.5 µM) | 4 (≈ 6.77 µM) | > 64 | 8 | – | – | – | – | – | – | –
16 | Cl.Cl.O=c1[nH]c(NCc2ccc(Cl)c(Cl)c2)nc2cnn(C3CCN(CC4CCCCN4)CC3)c12 (stereo not shown) [Compound 249, 5-((3,4-dichlorobenzyl)amino)-1-(1-(piperidin-2-ylmethyl)piperidin-4-yl)-1H-pyrazolo[4,3-d]pyrimidin-7(6H)-one dihydrochloride] | 16 | 16 | 16 | 8 | 4 | 4 | > 64 | 64 | – | – | – | – | – | – | –
17 | CC(C)(C)OC(=O)N1CCCC(CN2CCC(n3ncc4nc(NCc5ccc(Cl)c(Cl)c5)[nH]c(=O)c43)CC2)C1.Cl (stereo not shown) [Compound 250] | > 64 | > 64 | > 64 | 4 | 8 | 4 | > 64 | >64 | – | – | – | – | – | – | –
